Here are results for 20 compounds from patent publication US20220089612A1, “HETEROCYCLIC COMPOUNDS AS PRMT5 INHIBITORS” (ANGEX PHARMACEUTICAL, INC., priority 2017, published 2022).

PRMT5:MEP50, sequence (O14744 whole entry, species assumed): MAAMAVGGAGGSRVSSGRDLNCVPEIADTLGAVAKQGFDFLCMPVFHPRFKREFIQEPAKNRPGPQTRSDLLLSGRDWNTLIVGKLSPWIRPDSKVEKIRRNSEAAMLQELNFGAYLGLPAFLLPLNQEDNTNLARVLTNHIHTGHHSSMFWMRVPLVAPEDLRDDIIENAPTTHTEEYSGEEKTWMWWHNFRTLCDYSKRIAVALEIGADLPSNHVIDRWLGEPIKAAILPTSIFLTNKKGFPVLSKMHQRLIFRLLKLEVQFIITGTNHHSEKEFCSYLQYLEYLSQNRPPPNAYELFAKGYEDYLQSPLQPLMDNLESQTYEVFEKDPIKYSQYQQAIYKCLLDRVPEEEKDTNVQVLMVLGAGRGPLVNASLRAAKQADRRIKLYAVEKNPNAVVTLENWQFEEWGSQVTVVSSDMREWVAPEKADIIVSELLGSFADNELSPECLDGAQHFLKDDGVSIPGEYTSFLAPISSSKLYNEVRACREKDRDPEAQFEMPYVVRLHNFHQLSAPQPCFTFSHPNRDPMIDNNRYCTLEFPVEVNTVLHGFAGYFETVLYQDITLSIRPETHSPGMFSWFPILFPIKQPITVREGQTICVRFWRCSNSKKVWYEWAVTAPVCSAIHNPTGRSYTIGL
PRMT5:MEP50, sequence (Q9BQA1 whole entry partner, species assumed): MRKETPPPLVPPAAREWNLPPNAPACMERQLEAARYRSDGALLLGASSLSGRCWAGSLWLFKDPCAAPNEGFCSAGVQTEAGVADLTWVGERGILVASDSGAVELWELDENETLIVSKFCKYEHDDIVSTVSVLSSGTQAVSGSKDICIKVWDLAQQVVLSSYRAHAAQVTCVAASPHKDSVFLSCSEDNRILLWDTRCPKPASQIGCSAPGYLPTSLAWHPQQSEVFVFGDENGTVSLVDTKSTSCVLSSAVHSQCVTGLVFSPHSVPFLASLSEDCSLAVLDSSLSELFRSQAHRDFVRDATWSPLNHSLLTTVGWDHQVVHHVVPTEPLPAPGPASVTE

This assay deals with PRMT5:MEP50 (Homo sapiens, UniProt O14744). The assay can be described thus: PRMT5:MEP50 Flashplate Assay. Type of assay: biochemical. Particulars: PRMT5:MEP50 inhibitory activity; 3H-SAM, 2 h at room temperature, top concentration 10 μM. As for the experimental part:
PRMT5:MEP50 Flashplate Assay:
Ten-point curves of inhibitor compounds were made using serial threefold dilutions in DMSO (the final top concentration of compound was 10 μM, 1% DMSO). Reaction mixture consisting of 50 mM Tris-HCl (pH 8.5), 0.002% Tween 20, 0.005% BSA (Bovine Serum Albumin), 1 mM TCEP, and 1% DMSO. Substrates are freshly prepared in reaction buffer. PRMT5:MEP50 was then added into substrate solution and mixed gently. Inhibitor compound was then added and incubated for 30 min at room temperature. ^3H-SAM was added to initiate the reaction. Reactions were incubated for 2 h at room temperature and quenched with 0.5 mM SAM (S-adenosyl-L-Methionine) in assay buffer. An aliquot of the reaction mix was transferred to a streptavidin-coated 384-well FlashPlate (PerkinElmer). After an incubation time of 1 h, the plate was washed and then read on a TopCount (PerkinElmer) to measure the amount of tritium incorporated into the peptide substrate. IC50 was calculated using conventional curve-fitting method.
Regarding `NC1=Nc2cc(CC[C@H]3C[C@@H](n4ccc5c(N)ncnc54)[C@H](O)[C@@H]3O)ccc2[C@@H]2C[C@H]12` (single isomer, unassigned) [Compound 1-10], the IC50 was below 1 nM. The result for `NC1=Nc2cc(CC[C@H]3C[C@@H](n4ccc5c(N)ncnc54)[C@H](O)[C@@H]3O)ccc2[C@H]2C[C@@H]12` (single isomer, unassigned) [Compound 1-11] reads below 1 nM; that for `Nc1ncnc2c1ccn2[C@@H]1C[C@H](CCc2ccc3cc4c(nc3c2)NCC4)[C@@H](O)[C@H]1O` [Compound 1-7, (1R,2S,3R,5S)-3-(4-amino-7H-pyrrolo[2,3-d]pyrimidin-7-yl)-5-(2-(2,3-dihydro-1H-pyrrolo[2,3-b]quinolin-7-yl)ethyl)cyclopentane-1,2-diol], below 1 nM.

Consider `NC1=Nc2cc(CC[C@H]3C[C@@H](n4ccc5c(N)ncnc54)[C@H](O)[C@@H]3O)ccc2C2=NCCN12` [Compound 1-8, (1S,2R,3S,5R)-3-(2-(5-amino-2,3-dihydroimidazo[1,2-c]quinazolin-8-yl)ethyl)-5-(4-amino-7H-pyrrolo[2,3-d]pyrimidin-7-yl)cyclopentane-1,2-diol], for which the IC50 was below 1 nM. On to `Nc1ncnc2c1ccn2[C@@H]1C[C@H](CCc2ccc3c(c2)nc(N)n2ccnc32)[C@@H](O)[C@H]1O` [Compound 1-9, (1R,2S,3R,5S)-3-(4-amino-7H-pyrrolo[2,3-d]pyrimidin-7-yl)-5-(2-(5-aminoimidazo-[1,2-c]quinazolin-8-yl)ethyl)cyclopentane-1,2-diol], for which the IC50 was below 1 nM. The result for `Nc1ncnc2c1ccn2[C@@H]1C[C@H](CCc2ccc3cc4cn[nH]c4nc3c2)[C@@H](O)[C@H]1O` [Compound 1-12, (1S,2R,3S,5R)-3-(2-(1H-pyrazolo[3,4-b]quinolin-7-yl)ethyl)-5-(4-amino-7H-pyrrolo-[2,3-d]pyrimidin-7-yl)cyclopentane-1,2-diol] reads 1 to 100 nM; that for `Nc1ncnc2c1ccn2[C@@H]1C[C@H](CCc2ccc3cc4c(nc3c2)NOCC4)[C@@H](O)[C@H]1O` [Compound 1-13, (1R,2S,3R,5S)-3-(4-amino-7H-pyrrolo[2,3-d]pyrimidin-7-yl)-5-(2-(3,4-dihydro-1H-[1,2]oxazino[3,4-b]quinolin-8-yl)ethyl)cyclopentane-1,2-diol], below 1 nM; that for `Nc1ncnc2c1ccn2[C@@H]1C[C@H](CCc2ccc3cc4c(nc3c2)NOC4)[C@@H](O)[C@H]1O` [Compound 1-14, (1R,2S,3R,5S)-3-(4-amino-7H-pyrrolo[2,3-d]pyrimidin-7-yl)-5-(2-(1,3-dihydroisoxazolo[3,4-b]quinolin-7-yl)ethyl)cyclopentane-1,2-diol], below 1 nM. The result for `C[C@H]1Cc2cc3ccc(CC[C@H]4C[C@@H](n5ccc6c(N)ncnc65)[C@H](O)[C@@H]4O)cc3nc2NO1` [Compound 1-15, (1R,2S,3R,5S)-3-(4-amino-7H-pyrrolo[2,3-d]pyrimidin-7-yl)-5-(2-((S)-3-methyl-3,4-dihydro-1H-[1,2]oxazino[3,4-b]quinolin-8-yl)ethyl)cyclopentane-1,2-diol] reads 1 to 100 nM.

`C[C@@H]1Cc2cc3ccc(CC[C@H]4C[C@@H](n5ccc6c(N)ncnc65)[C@H](O)[C@@H]4O)cc3nc2NO1` [Compound 1-16, (1R,2S,3R,5S)-3-(4-amino-7H-pyrrolo[2,3-d]pyrimidin-7-yl)-5-(2-((R)-3-methyl-3,4-dihydro-1H-[1,2]oxazino[3,4-b]quinolin-8-yl)ethyl)cyclopentane-1,2-diol] yielded an IC50 below 1 nM. For `Nc1ncnc2c1ccn2[C@@H]1C[C@H](CCc2ccc3cc4c(nc3c2)NOCCC4)[C@@H](O)[C@H]1O` [Compound 1-17, (1R,2S,3R,5S)-3-(4-amino-7H-pyrrolo[2,3-d]pyrimidin-7-yl)-5-(2-(1,3,4,5-tetrahydro-[1,2]oxazepino[3,4-b]quinolin-9-yl)ethyl)cyclopentane-1,2-diol], the IC50 lay in the range of 1 to 100 nM. The result for `Nc1ncnc2c1ccn2[C@@H]1C[C@H](CCc2ccc3cc4nc[nH]c4nc3c2)[C@@H](O)[C@H]1O` [Compound 1-18, (1S,2R,3S,5R)-3-(2-(3H-imidazo[4,5-b]quinolin-6-yl)ethyl)-5-(4-amino-7H-pyrrolo[2,3-d]pyrimidin-7-yl)cyclopentane-1,2-diol] reads below 1 nM; that for `Nc1ncnc2c1ccn2[C@@H]1C[C@H](CCc2ccc3cc4nn[nH]c4nc3c2)[C@@H](O)[C@H]1O` [Compound 1-19, (1S,2R,3S,5R)-3-(2-(3H-[1,2,3]triazolo[4,5-b]quinolin-6-yl)ethyl)-5-(4-amino-7H-pyrrolo[2,3-d]pyrimidin-7-yl)cyclopentane-1,2-diol], 1 to 100 nM; that for `C[C@H]1Cc2cc3ccc(CC[C@H]4C[C@@H](n5ccc6c(N)ncnc65)[C@H](O)[C@@H]4O)cc3nc2N1` [Compound 1-20, (1R,2S,3R,5S)-3-(4-amino-7H-pyrrolo[2,3-d]pyrimidin-7-yl)-5-(2-((S)-2-methyl-2,3-dihydro-1H-pyrrolo[2,3-b]quinolin-7-yl)ethyl)cyclopentane-1,2-diol], below 1 nM. On to `C[C@@H]1Cc2cc3ccc(CC[C@H]4C[C@@H](n5ccc6c(N)ncnc65)[C@H](O)[C@@H]4O)cc3nc2N1` [Compound 1-21, (1R,2S,3R,5S)-3-(4-amino-7H-pyrrolo[2,3-d]pyrimidin-7-yl)-5-(2-((R)-2-methyl-2,3-dihydro-1H-pyrrolo[2,3-b]quinolin-7-yl)ethyl)cyclopentane-1,2-diol], for which the IC50 was below 1 nM. Consider `Nc1ncnc2c1ccn2[C@@H]1C[C@H](CCc2ccc3cc4c(nc3c2)N[C@H](C2CC2)C4)[C@@H](O)[C@H]1O` [Compound 1-22, (1R,2S,3R,5S)-3-(4-amino-7H-pyrrolo[2,3-d]pyrimidin-7-yl)-5-(2-((S)-2-cyclopropyl-2,3-dihydro-1H-pyrrolo[2,3-b]quinolin-7-yl)ethyl)cyclopentane-1,2-diol], for which the IC50 was below 1 nM. The result for `Nc1ncnc2c1ccn2[C@@H]1C[C@H](CCc2ccc3cc4c(nc3c2)N[C@@H](C2CC2)C4)[C@@H](O)[C@H]1O` [Compound 1-23, (1R,2S,3R,5S)-3-(4-amino-7H-pyrrolo[2,3-d]pyrimidin-7-yl)-5-(2-((R)-2-cyclopropyl-2,3-dihydro-1H-pyrrolo[2,3-b]quinolin-7-yl)ethyl)cyclopentane-1,2-diol] reads below 1 nM; that for `CC[C@@H]1Cc2cc3ccc(CC[C@H]4C[C@@H](n5ccc6c(N)ncnc65)[C@H](O)[C@@H]4O)cc3nc2N1` [Compound 1-24, (1R,2S,3R,5S)-3-(4-amino-7H-pyrrolo[2,3-d]pyrimidin-7-yl)-5-(2-((R)-2-ethyl-2,3-dihydro-1H-pyrrolo[2,3-b]quinolin-7-yl)ethyl)cyclopentane-1,2-diol], below 1 nM; that for `CC(C)[C@@H]1Cc2cc3ccc(CC[C@H]4C[C@@H](n5ccc6c(N)ncnc65)[C@H](O)[C@@H]4O)cc3nc2N1` [Compound 1-25, (1R,2S,3R,5S)-3-(4-amino-7H-pyrrolo[2,3-d]pyrimidin-7-yl)-5-(2-((S)-2-isopropyl-2,3-dihydro-1H-pyrrolo[2,3-b]quinolin-7-yl)ethyl)cyclopentane-1,2-diol], below 1 nM. The result for `CC(C)(C)[C@@H]1Cc2cc3ccc(CC[C@H]4C[C@@H](n5ccc6c(N)ncnc65)[C@H](O)[C@@H]4O)cc3nc2N1` [Compound 1-26, (1R,2S,3R,5S)-3-(4-amino-7H-pyrrolo[2,3-d]pyrimidin-7-yl)-5-(2-((S)-2-(tert-butyl)-2,3-dihydro-1H-pyrrolo[2,3-b]quinolin-7-yl)ethyl)cyclopentane-1,2-diol] reads below 1 nM.

In general, IC50 refers to the midpoint of a concentration-inhibition curve.
